Reference: patent US11034648B2, “Cystobactamide derivatives” (priority 2017, dated 2021)
pIC50: −log10 of the molar value. ≈ marks a conversion by molar mass, not a printed value. Read-outs that look alike come from different tables or passages of the source.

Legend:
[1] = tested on: P. aeruginosa WT PA14; assay: MIC, microbroth dilution susceptibility assay; assay type: cell-based; details: Pseudomonas aeruginosa
Method: (§1) Cystobactamid derivatives synthesized were tested against relevant Gram negative and positive bacteria of clinical interest. Experimental procedures used for the biological characterization of the compounds are the same as previously described in WO 2016/082934.
(§2) Bacterial strains used in susceptibility assays (minimum inhibitory concentration, MIC) were either part of our internal strain collection or purchased from the German Collection of Microorganisms and Cell Cultures (Deutsche Sammlung von Mikroorganismen und Zellkulturen, DSMZ) and the American Type Culture Collection (ATCC). The susceptible E. coli strain (WT) and fluoroquinolone-resistant mutants E. coli WT-3 and WT-III were kindly provided by Prof Dr. P. Heisig, Pharmaceutical Biology and Microbiology, University of Hamburg, Germany. The efflux-deficient strain P. aeruginosa ΔmexAB was kindly provided by Prof Dr. S. Häußler, Institute for Molecular Bacteriology, TWINCORE, Hannover, Germany. All compounds were prepared as DMSO stocks and MIC values were determined in standard microbroth dilution assays in 96-well MTPs as described in Baumann et al., Angew Chem Int Ed Engl. 2014; 53(52):14605-9. In brief, overnight cultures of bacteria were diluted in either tryptic soy broth (TSB: 1.7% peptone casein, 0.3% peptone soymeal, 0.25% glucose, 0.5% NaCl, 0.25% K2HPO4; pH 7.3; S. pneumoniae and E. faecalis) or cation-adjusted Müller-Hinton Broth (BBL™, BD; all other bacteria) and adjusted to 10^4-10^6 cfu/mL. Bacteria were grown in the presence of the derivatives in serial dilution for approx. 16 h at 30-37° C. MIC values were determined and were defined as the antibiotic concentration at which no visual growth of bacteria was observed.

[2] = tested on: E. coli WT DSM-1116; assay: MIC, microbroth dilution susceptibility assay; assay type: cell-based; details: Escherichia coli, no visual growth after approx. 16 h
Method: as §1, §2

[3] = tested on: S. aureus Newman; assay: MIC, microbroth dilution susceptibility assay; assay type: cell-based; details: Staphylococcus aureus, NEWMAN, read-out: MIC S. aureus Newman
Method: as §1, §2

[4] = biological target: T1, E. coli gyrase (Escherichia coli, UniProt P0AES4+P0AES6); assay: E. coli gyrase supercoiling (sc) assay; assay type: biochemical; details: supercoiling assay kit, agarose gel quantification; read-out: Ec gyrase sc IC50
T1 construct: purchased Inspiralis
T1 sequence (P0AES4 whole entry, one chain of several): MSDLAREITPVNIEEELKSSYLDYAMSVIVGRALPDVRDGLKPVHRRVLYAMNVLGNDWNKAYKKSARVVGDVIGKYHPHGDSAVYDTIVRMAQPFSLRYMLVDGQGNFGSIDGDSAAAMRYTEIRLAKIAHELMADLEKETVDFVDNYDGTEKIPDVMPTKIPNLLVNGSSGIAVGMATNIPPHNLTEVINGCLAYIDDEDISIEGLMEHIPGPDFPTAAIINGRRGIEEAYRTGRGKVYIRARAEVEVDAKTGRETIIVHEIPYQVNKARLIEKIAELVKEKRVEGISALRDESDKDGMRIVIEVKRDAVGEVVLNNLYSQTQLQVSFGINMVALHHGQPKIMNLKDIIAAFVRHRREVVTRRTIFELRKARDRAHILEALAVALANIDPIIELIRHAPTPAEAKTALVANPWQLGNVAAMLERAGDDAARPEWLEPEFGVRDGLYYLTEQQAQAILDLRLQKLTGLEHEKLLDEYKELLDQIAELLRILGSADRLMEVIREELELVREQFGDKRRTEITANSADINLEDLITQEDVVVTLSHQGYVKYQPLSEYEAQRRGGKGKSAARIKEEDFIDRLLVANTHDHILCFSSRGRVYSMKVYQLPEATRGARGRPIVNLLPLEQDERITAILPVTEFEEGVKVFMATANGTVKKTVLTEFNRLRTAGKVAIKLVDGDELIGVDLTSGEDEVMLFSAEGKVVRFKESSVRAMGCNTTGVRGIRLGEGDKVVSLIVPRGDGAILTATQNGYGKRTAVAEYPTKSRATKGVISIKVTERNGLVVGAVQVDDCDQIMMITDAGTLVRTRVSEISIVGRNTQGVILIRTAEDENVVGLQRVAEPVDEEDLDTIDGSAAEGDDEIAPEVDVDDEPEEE
Method: The target activity on E. coli gyrase was assessed as described in Baumann et al., Angew Chem Int Ed Engl. 2014; 53(52):14605-9 using a commercial supercoiling (sc) assay kit from Inspiralis according to the manufacturer's instructions. The samples were separated on 0.8% (w/v) agarose gels and relaxed and supercoiled plasmid was visualized by ethidium bromide staining. Half-inhibitory concentrations (IC50) were calculated after image analysis and quantification (ImageJ) based on sigmoidal curve fitting (OriginPro).

[5] = tested on: P. aeruginosa ΔmexAB; assay: microbe, parasite or virus in culture; assay type: cell-based; details: Pseudomonas aeruginosa, 16 h, read-out: MIC P. aeruginosa ΔmexAB, efflux-deficient strain; small panel, Tables 1a/1b
Method: as §1, §2

[6] = tested on: E. coli ΔtolC; assay: microbe, parasite or virus in culture; assay type: cell-based; details: Escherichia coli, 16 h, read-out: MIC E. coli ΔtolC, small panel, Tables 1a/1b; no visual growth after approx. 16 h
Method: as §1, §2

[7] = tested on: A. baumannii DSM-30008; assay: MIC, microbroth dilution susceptibility assay; assay type: cell-based; details: Acinetobacter baumannii, DSM30008; large panel, Table 2a
Method: as §1, §2

[8] = tested on: S. aureus ATCC-29213; assay: MIC, microbroth dilution susceptibility assay; assay type: cell-based; details: Staphylococcus aureus, ATCC29213; large panel, Table 2a
Method: as §1, §2

[9] = tested on: E. aerogenes DSM-30053; assay: MIC, microbroth dilution susceptibility assay; assay type: cell-based; details: Klebsiella aerogenes, DSM30053; large panel, Table 2a
Method: as §1, §2

[10] = tested on: S. marcescens DSM-30121; assay: MIC, microbroth dilution susceptibility assay; assay type: cell-based; details: Serratia marcescens, DSM30121; large panel, Table 2a
Method: as §1, §2

[11] = tested on: E. coli WT; assay: MIC, microbroth dilution susceptibility assay; assay type: cell-based; details: Escherichia coli; large panel, Table 2a
Method: as §1, §2

[12] = tested on: P. vulgaris DSM-2140; assay: MIC, microbroth dilution susceptibility assay; assay type: cell-based; details: Proteus vulgaris, DSM2140; large panel, Table 2a
Method: as §1, §2

[13] = tested on: C. freundii DSM-30039; assay: MIC, microbroth dilution susceptibility assay; assay type: cell-based; details: Citrobacter freundii, DSM30039; large panel, Table 2a
Method: as §1, §2

[14] = tested on: K. pneumoniae DSM-30104; assay: MIC, microbroth dilution susceptibility assay; assay type: cell-based; details: Klebsiella pneumoniae, DSM30104; large panel, Table 2a
Method: as §1, §2

[15] = PA14, read-out: MIC P. aeruginosa WT PA14
[16] = DSM1116, 16 h, read-out: MIC E. coli WT DSM-1116, small panel, Tables 1a/1b
[17] = PA14, small panel, Tables 1a/1b, read-out: MIC P. aeruginosa WT PA14
[18] = DSM1116, small panel, Tables 1a/1b, read-out: MIC E. coli WT DSM-1116

Row | Compound | MIC [1, 15] | MIC [2, 16] | MIC [3] | pIC50 [4] | MIC [5] | MIC [6] | MIC [7] | MIC [8] | MIC [9] | MIC [10] | MIC [1, 17] | MIC [11] | MIC [12] | MIC [2, 18] | MIC [13] | MIC [14] | MIC ([3]; small panel, Tables 1a/1b)
1 | CC(C)Oc1c(NC(=O)c2ccc(NC(=O)[C@H](CC(N)=O)NC(=O)c3ccc(NC(=O)c4ccc(C5(C(F)(F)F)N=N5)cc4)cc3)cc2)ccc(C(=O)Nc2ccc(C(=O)O)cc2)c1O [Compound 37, (S)-4-(4-(4-(4-amino-4-oxo-2-(4-(4-(3-(trifluoromethyl)-3H-diazirin-3-yl)benzamido)benzamido)butanamido)benzamido)-2-hydroxy-3-isopropoxybenzamido)benzoic acid] | > 64 µg/mL | 16 µg/mL (≈ 17.9 µM) | > 64 µg/mL | 4.80 | > 64 µg/mL | 8 µg/mL (≈ 8.94 µM) |  |  |  |  |  |  |  |  |  |  | 
2 | CC(C)Oc1c(N)ccc(C(=O)Nc2ccc(C(=O)N[C@@H](CC(N)=O)C(=O)Nc3ccc(C(=O)Nc4ccc(C(=O)Nc5ccc(C(=O)O)cc5)c(O)c4OC(C)C)cc3)cc2)c1O [Compound 49, (S)-4-(4-(4-(4-amino-2-(4-(4-amino-2-hydroxy-3-isopropoxybenzamido)benzamido)-4-oxobutanamido)benzamido)-2-hydroxy-3-isopropoxybenzamido)benzoic acid] |  |  |  |  | 2 to 4 µg/mL (≈ 2.28 to 4.57 µM) | 0.01 to 0.06 µg/mL (≈ 0.0114 to 0.0685 µM) | 32 µg/mL (≈ 36.5 µM) | > 64 µg/mL | > 64 µg/mL | > 64 µg/mL | > 64 µg/mL | 2 µg/mL (≈ 2.28 µM) | 4 µg/mL (≈ 4.57 µM) | 2 µg/mL (≈ 2.28 µM) | 2 µg/mL (≈ 2.28 µM) | > 64 µg/mL | > 64 µg/mL
3 | CC(C)Oc1c(NC(=O)c2ccc(NC(=O)c3ccc(NC(=O)[C@H](CC(N)=O)NC(=O)c4ccc(NC(=O)c5ccc([N+](=O)[O-])cc5)cc4)cc3)c(OC(C)C)c2O)ccc(C(=O)O)c1O [Compound 61, (S)-4-(4-(4-(4-amino-2-(4-(4-nitrobenzamido)benzamido)-4-oxobutanamido)benzamido)-2-hydroxy-3-isopropoxybenzamido)-2-hydroxy-3-isopropoxybenzoic acid] |  |  |  |  | 1 to 2 µg/mL (≈ 1.1 to 2.21 µM) | 0.125 to 0.25 µg/mL (≈ 0.138 to 0.276 µM) | 1 µg/mL (≈ 1.1 µM) | 0.05 µg/mL (≈ 0.0552 µM) | > 64 µg/mL | > 64 µg/mL | > 64 µg/mL | 0.5 µg/mL (≈ 0.552 µM) | 0.5 µg/mL (≈ 0.552 µM) | 0.5 µg/mL (≈ 0.552 µM) | 0.5 µg/mL (≈ 0.552 µM) | > 64 µg/mL | 0.05 µg/mL (≈ 0.0552 µM)
4 | CC(C)Oc1c(NC(=O)c2ccc(NC(=O)c3ccc(NC(=O)[C@H](CC(N)=O)NC(=O)c4ccc(NC(=O)c5ccc(C#N)cc5)cc4)cc3)c(OC(C)C)c2O)ccc(C(=O)O)c1O [Compound 62, (S)-4-(4-(4-(4-amino-2-(4-(4-cyanobenzamido)benzamido)-4-oxobutanamido)benzamido)-2-hydroxy-3-isopropoxybenzamido)-2-hydroxy-3-isopropoxybenzoic acid] |  |  |  |  | 1 µg/mL (≈ 1.13 µM) | ≤ 0.03 µg/mL | 0.5 µg/mL (≈ 0.564 µM) | 0.025 µg/mL (≈ 0.0282 µM) | > 64 µg/mL | > 64 µg/mL | > 64 µg/mL | 0.125 to 0.25 µg/mL (≈ 0.141 to 0.282 µM) | 0.25 µg/mL (≈ 0.282 µM) | 0.25 µg/mL (≈ 0.282 µM) | 0.125 µg/mL (≈ 0.141 µM) | > 64 µg/mL | ≤ 0.03 µg/mL
5 | CC(C)Oc1c(-n2cc(-c3ccc(NC(=O)[C@H](CC(N)=O)NC(=O)c4ccc(NC(=O)c5ccc(C#N)cc5)cc4)cc3)nn2)ccc(C(=O)Nc2ccc(C(=O)O)cc2)c1O [Compound 119, 4-(4-(4-(4-(4-amino-2-(4-(4-cyanobenzamido)benzamido)-4-oxobutanamido)phenyl)-1H-1,2,3-triazol-1-yl)-2-hydroxy-3-isopropoxybenzamido)benzoic acid] | 8 µg/mL (≈ 9.57 µM) | 0.06 µg/mL (≈ 0.0718 µM) | < 0.03 µg/mL | 5.82 | 2 µg/mL (≈ 2.39 µM) | < 0.03 µg/mL |  |  |  |  |  |  |  |  |  |  | 
6 | C/C(=C\c1ccc(C#N)cc1)C(=O)Nc1ccc(C(=O)N[C@@H](CC(N)=O)C(=O)Nc2ccc(C(=O)Nc3ccc(C(=O)Nc4ccc(C(=O)O)c(O)c4OC(C)C)c(O)c3OC(C)C)cc2)cc1 [Compound 124, (S,E)-4-(4-(4-(4-Amino-2-(4-(3-(4-cyanophenyl)-2-methylacrylamido)benzamido)-4-oxobutanamido)benzamido)-2-hydroxy-3-isopropoxybenzamido)-2-hydroxy-3-isopropoxybenzoic acid] |  | 0.125 µg/mL (≈ 0.135 µM) |  | 6.70 |  |  |  |  |  |  |  |  |  | 0.5 µg/mL (≈ 0.54 µM) |  |  | 0.06 µg/mL (≈ 0.0648 µM)
7 | C/C(=C\c1ccc(C#N)cc1)C(=O)Nc1ccc(C(=O)N[C@@H](CC(N)=O)C(=O)Nc2ccc(C(=O)Nc3ccc(C(=O)Nc4ccc(C(=O)O)cc4)c(O)c3OCC(C)C)cc2)cc1 [Compound 125, (S,E)-4-(4-(4-(4-amino-2-(4-(3-(4-cyanophenyl)-2-methylacrylamido)benzamido)-4-oxobutanamido)benzamido)-2-hydroxy-3-isobutoxybenzamido)benzoic acid] |  |  |  |  | > 64 µg/mL | 0.06 µg/mL (≈ 0.0693 µM) |  |  |  |  | > 64 µg/mL |  |  | 0.5 µg/mL (≈ 0.577 µM) |  |  | 0.06 µg/mL (≈ 0.0693 µM)
8 | CC(C)COc1c(NC(=O)c2ccc(NC(=O)[C@H](CC(N)=O)NC(=O)c3ccc(NC(=O)c4ccc(C#N)cc4)cc3)cc2)ccc(C(=O)Nc2ccc(C(=O)O)cc2)c1O [Compound 126, (S)-4-(4-(4-(4-amino-2-(4-(4-cyanobenzamido)benzamido)-4-oxobutanamido)benzamido)-2-hydroxy-3-isobutoxybenzamido)benzoic acid] |  |  |  |  | > 64 µg/mL | < 0.03 µg/mL |  |  |  |  | > 64 µg/mL |  |  | 0.25 µg/mL (≈ 0.303 µM) |  |  | 0.25 µg/mL (≈ 0.303 µM)
9 | CC(C)Oc1c(NC(=O)c2ccc(NC(=O)[C@H](CC(N)=O)NC(=O)c3ccc(C#Cc4ccc(C#N)cc4)cc3)cc2)ccc(C(=O)Nc2ccc(C(=O)O)cc2)c1O [Compound 128, (S)-4-(4-(4-(4-Amino-2-(4-((4-cyanophenyl)ethynyl)benzamido)-4-oxobutanamido)benzamido)-2-hydroxy-3-isopropoxybenzamido)benzoic acid] | > 64 µg/mL | 0.06 µg/mL (≈ 0.0757 µM) | < 0.03 µg/mL |  | 0.5 µg/mL (≈ 0.631 µM) | 0.06 µg/mL (≈ 0.0757 µM) |  |  |  |  |  |  |  |  |  |  | 
